Literature values as cited in US4196187A, “Rumen-stable pellets” (Eastman Kodak Company, priority 1977, dated 1980).

Key:
[1] = Example 1

SMILES | soluble to the extent of (25° C., water) | acidity of a saturated solution (pH) [1] | Solubility g./100 g. water at 25° C. [g./100 g. water]
Cl.NCCCC[C@H](N)C(=O)O [L-Lysine monohydrochloride] | about 70 g./100 g. of water | 5.5 | –
CSCCC(N)C(=O)O (racemic) [DL - Methionone] | – | – | 4.0
